Reference: ChEMBL document CHEMBL1201862, “PubChem BioAssay data set” (2004)
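The compound was tested at five concentrations on cells cultured in 96-well plates, with a 48-hour exposure period. At the GI50, growth is halved.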 The source made the active and inactive calls. Cut-off read from the data, not from the text of the source: active = GI50 up to about 1.1 µM and inactive = higher.

Key:
Assay in all cases: growth of human tumour cells (NCI), 48 h
786-0 = system: 786-0
A549 = system: A549
COLO 205 = system: COLO 205
HCT-15 = system: HCT-15
HL-60 = system: HL-60
HT-29 = system: HT-29
Hs-578T = system: Hs-578T
IGROV-1 = system: IGROV-1
K562 = system: K562
LOX IMVI = system: LOX IMVI
MCF7 = system: MCF7
MDA-MB-231 = system: MDA-MB-231
MOLT-4 = system: MOLT-4
Malme-3M = system: Malme-3M
OVCAR-4 = system: OVCAR-4
OVCAR-5 = system: OVCAR-5
RPMI-8226 = system: RPMI-8226
SK-MEL-5 = system: SK-MEL-5
SNB-19 = system: SNB-19
T47D = system: T47D

SMILES	GI50 (786-0)	GI50 (A549)	GI50 (COLO 205)	GI50 (HCT-15) [µM]	GI50 (HL-60)	GI50 (HT-29)	GI50 (Hs-578T)	GI50 (IGROV-1)	GI50 (K562)	GI50 (LOX IMVI)	GI50 (MCF7)	GI50 (MDA-MB-231)	GI50 (MOLT-4)	GI50 (Malme-3M)	GI50 (OVCAR-4)	GI50 (OVCAR-5)	GI50 (RPMI-8226)	GI50 (SK-MEL-5)	GI50 (SNB-19)	GI50 (T47D)
O=C1C=CC(=O)C(CNc2ccc(C(=O)OC34CC5CC(CC(C5)C3)C4)cc2)=C1	10.3 µM (inactive)	16.1 µM (inactive)	2.04 µM (inactive)	2.44	1.53 µM (inactive)	9.44 µM (inactive)	2.38 µM (inactive)	1.54 µM (inactive)	4.52 µM (inactive)	4.57 µM (inactive)	3.43 µM (inactive)	14 µM (inactive)	1.51 µM (inactive)	4.58 µM (inactive)	3.01 µM (inactive)	15.1 µM (inactive)	1.93 µM (inactive)	4.38 µM (inactive)	12.8 µM (inactive)	2.49 µM (inactive)
CC(C)/C(Cl)=N/OC(=O)Nc1ccc(F)c(Cl)c1	1.6 µM (inactive)	18.1 µM (inactive)	1.77 µM (inactive)	1.93	2.03 µM (inactive)	5.69 µM (inactive)	21.6 µM (inactive)	12.9 µM (inactive)	1.09 µM (active)	1.76 µM (inactive)	6.64 µM (inactive)	16.2 µM (inactive)	1.94 µM (inactive)	1.96 µM (inactive)	8.49 µM (inactive)	19.2 µM (inactive)	1.87 µM (inactive)	13.1 µM (inactive)	22.6 µM (inactive)	5.11 µM (inactive)
COc1cc2[nH]c(=O)[nH]c2c2c(C)c[nH]c12	> 100 µM (inactive)	> 100 µM (inactive)	> 100 µM (inactive)	> 100	> 100 µM (inactive)	> 100 µM (inactive)	> 100 µM (inactive)	> 100 µM (inactive)	> 100 µM (inactive)	> 100 µM (inactive)	> 100 µM (inactive)	> 100 µM (inactive)	> 100 µM (inactive)	> 100 µM (inactive)	> 100 µM (inactive)	> 100 µM (inactive)	> 100 µM (inactive)	> 100 µM (inactive)	> 100 µM (inactive)	> 100 µM (inactive)
C/C(=N\Nc1nc2cc(Cl)ccc2s1)c1ccccn1	0.617 µM (active)	0.755 µM (active)	0.09 µM (active)	0.111	0.14 µM (active)	0.0824 µM (active)	2.89 µM (inactive)	0.127 µM (active)	0.136 µM (active)	0.459 µM (active)	0.0867 µM (active)	0.405 µM (active)	0.0346 µM (active)	0.834 µM (active)	0.39 µM (active)	2.77 µM (inactive)	0.264 µM (active)	0.428 µM (active)	1.01 µM (active)	0.402 µM (active)
O=C(O)CC1NC(/C(=C/c2ccccc2O)NC(=O)c2ccccc2)OC1=O (stereo not given)	30.3 µM (inactive)	> 100 µM (inactive)	> 100 µM (inactive)	30	> 43.9 µM (inactive)	> 96.6 µM (inactive)	24.7 µM (inactive)	14.3 µM (inactive)	> 100 µM (inactive)	50.9 µM (inactive)	3.97 µM (inactive)	22.1 µM (inactive)	> 100 µM (inactive)	55.7 µM (inactive)	7.59 µM (inactive)	> 100 µM (inactive)	> 100 µM (inactive)	> 73.5 µM (inactive)	17.8 µM (inactive)	11.7 µM (inactive)
OCCN(/N=C\c1ccc2ccccc2c1)C1=NCCN1	25.2 µM (inactive)	59.2 µM (inactive)	17.9 µM (inactive)	30.5	19 µM (inactive)	27.5 µM (inactive)	36.1 µM (inactive)	35.1 µM (inactive)	14.4 µM (inactive)	16.3 µM (inactive)	36.1 µM (inactive)	12.8 µM (inactive)	18.2 µM (inactive)	15.6 µM (inactive)	30.8 µM (inactive)	24.2 µM (inactive)	28.8 µM (inactive)	18.3 µM (inactive)	32.4 µM (inactive)	29.6 µM (inactive)
